# Tests used:
# Mcl-1 = biological target: T1, Mcl-1 (Mus musculus, UniProt P97287); experiment: Solution competition assay (competition with immobilized wtBimBH3, biosensor); assay type: binding; conditions: Mcl-1
# T1 construct: mouse Mcl-1 (Acc. no. NP_031588; residues 152-308); GST (N, cleaved yes); made in house
# Description: (§1) The relative affinities of BH3 peptides for pro-survival Bcl-2 proteins were assessed by comparing their abilities to compete with immobilized ^wtBimBH3 peptide for binding to Bcl-2-like proteins (Wilson-Annan et al., Supra). A fixed sub-saturating amount (10 nM) of a pro-survival Bcl-2 protein was incubated with varying amounts of competitor BH3 peptide in HBS for >2 hr on ice. The mixtures were then injected over a sensor chip containing a channel bearing mouse ^wtBimBH3 and a control channel with mouse ^4EBimBH3 immobilized. The baseline response (control channel) was subtracted to obtain the absolute binding response. Taking the response for the pro-survival protein alone as the maximal response (100%), the relative residual binding (%) in the presence of increasing amounts of competitor peptides at a given injection time point (430 s) was then calculated. […] Theoretically, IC50=[A]/2+KD, where [A] is the analyte concentration.
# (§2) Some of recombinant proteins (Bcl-2, Bcl-xL, A1) studied contain cysteine residues but the behavior of Bcl-2 or Bcl-xL was not affected by dithiothreitol (DTT).
# (§3) To assess if other BH3 peptides bind pro-survival proteins similarly, we directly compared their binding affinities in solution using a competitive binding assay. In such assays, the quality and absolute quantity of target proteins are less critical than in direct binding, and solution binding precludes the steric hindrance encountered with some immobilized peptides. FIG. 1C illustrates the approach: pre-incubation of Bcl-xL in solution with increasing amounts of BikBH3 reduced its binding to ^wtBimBH3 (FIG. 1D). From the attenuation in binding, the IC50 (competitor peptide concentration that halves binding) of BikBH3 can be calculated (FIG. 1E). As the IC50 values reflect relative binding affinities (see Experimental Procedures), we used this assay to compare the binding affinities of eight BH3 peptides (Table 3) to the five pro-survival proteins. […] Their binding properties fell into several classes (FIG. 2B and FIG. 4). […] Contrary to the prevailing view, the pro-survival proteins also had unique patterns for BH3 binding: Bcl-xL behaved like Bcl-w, with Bcl-2 more distinct, whereas Mcl-1 and A1 formed a separate group (FIG. 2B).
# Bcl-w ΔC29 = biological target: T2, Bcl-w ΔC29 (Homo sapiens, UniProt Q92843, A128E/C29S); experiment: Direct binding to immobilized BH3 peptide, Biacore biosensor; conditions: BadBH3 or NoxaBH3 immobilized chip
# T2 construct: human Bcl-w (Acc. no. NP_004041; residues 1-164; C29S A128E); made in house
# T2 sequence (Q92843 1-164 C29S/A128E): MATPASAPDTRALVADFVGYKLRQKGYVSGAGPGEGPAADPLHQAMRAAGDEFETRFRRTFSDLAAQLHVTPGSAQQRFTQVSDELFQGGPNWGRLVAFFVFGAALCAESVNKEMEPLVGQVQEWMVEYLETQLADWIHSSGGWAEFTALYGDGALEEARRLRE
# Description: (§4) Recombinant human Bcl-xL ΔC24, mouse Mcl-1 ΔN151 ΔC23 and mouse A1 ΔC20 were expressed as GST fusion proteins and cleaved off Glutathione Sepharose columns as described (Day et al., Cell Death Differ 6:1125-1132, 1999; Hinds et al., EMBO J 22:1497-1507, 2003).
# (§5) Affinity measurements were performed at room temperature on a Biacore 3000 biosensor (Biacore) with HBS (10 mM HEPES pH 7.2, 150 mM NaCl, 3.4 mM EDTA, 0.005% Tween 20) as the running buffer. Mouse 26-mer ^wtBimBH3, ^4EBimBH3 mutant, BadBH3, NoxaBH3 or control irrelevant peptides were immobilized onto CM5 sensor chips using amine-coupling chemistry (Wilson-Annan et al., Supra). To assess the binding affinities of pro-survival Bcl-2-like proteins for BimBH3 directly, the proteins were directly injected into the sensor chip at 20 μl/min. Residual bound proteins were desorbed with 50 mM NaOH or 6 M GuHCl (pH 7.2), followed by two washes with running buffer. Binding kinetics were derived from sensorgrams, following subtraction of baseline responses, using BIA evaluation software (version 3, Biacore) (Wilson-Annan et al., Supra).
# (§6) The binding constants of the pro-survival molecules for ^wtBimBH3, immobilized on sensor chip, were determined using biosensor experiments as described in Hinds et al., Supra; Wilson-Annan et al., Supra.
# A1 ΔC20 = biological target: T3, A1 ΔC20 (Mus musculus, UniProt Q07440); experiment: as above; conditions: BadBH3 or NoxaBH3 immobilized chip
# T3 construct: mouse A1 (Acc. no. NP_033872; residues 1-152); GST (N, cleaved yes); made in house
# T3 sequence (Q07440 1-152): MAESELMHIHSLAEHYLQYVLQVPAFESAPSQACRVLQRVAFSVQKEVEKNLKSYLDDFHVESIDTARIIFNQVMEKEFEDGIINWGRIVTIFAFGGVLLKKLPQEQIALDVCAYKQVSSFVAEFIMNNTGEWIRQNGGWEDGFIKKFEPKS
# Description: as §4, §5, §6
# Bcl-xL ΔC24 = biological target: T4, Bcl-xL ΔC24 (Homo sapiens, UniProt Q07817); experiment: as above; conditions: BadBH3 or NoxaBH3 immobilized chip
# T4 construct: Human Bcl-xL (Acc. no. NP_612815; residues 1-209); GST (N, cleaved yes); made in house
# Description: as §4, §5, §6
# Bcl-2 ΔC22 = biological target: T5, Bcl-2 ΔC22 (Homo sapiens, UniProt P10415); experiment: as above; conditions: BadBH3 or NoxaBH3 immobilized chip
# T5 construct: Human Bcl-2 (Acc. no. NP_000624; residues 1-217); made in house
# Description: as §4, §5, §6
# Mcl-1 ΔN151 ΔC23 = biological target: T6, Mcl-1 ΔN151 ΔC23 (Mus musculus, UniProt P97287); experiment: as above; conditions: BadBH3 or NoxaBH3 immobilized chip
# T6 construct: mouse Mcl-1 (Acc. no. NP_031588; residues 152-308); GST (N, cleaved yes); made in house
# Description: as §4, §5, §6
# [1] = tested on: pro-survival proteins (Bcl-2, Bcl-xL, Bcl-w, Mcl-1, A1); experiment: Solution competition assay, statements spanning several pro-survival proteins; assay type: binding, human and mouse; conditions: Bcl-2, Bcl-xL, Bcl-w, Mcl-1, A1
# Description: as §1, §2, §3
# T4 sequence (Q07817 1-209): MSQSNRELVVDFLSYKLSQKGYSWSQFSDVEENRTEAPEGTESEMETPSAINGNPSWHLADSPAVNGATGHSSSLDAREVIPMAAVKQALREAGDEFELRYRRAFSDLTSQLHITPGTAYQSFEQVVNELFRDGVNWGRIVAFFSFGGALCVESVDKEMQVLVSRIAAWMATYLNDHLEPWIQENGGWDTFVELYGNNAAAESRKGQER
# T1 sequence (P97287 152-308): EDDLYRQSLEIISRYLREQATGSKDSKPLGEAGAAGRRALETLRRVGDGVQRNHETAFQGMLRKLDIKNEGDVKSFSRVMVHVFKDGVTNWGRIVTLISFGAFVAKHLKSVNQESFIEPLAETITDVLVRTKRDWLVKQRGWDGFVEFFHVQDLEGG
# T6 sequence (P97287 152-308): as above
# T5 sequence (P10415 1-217): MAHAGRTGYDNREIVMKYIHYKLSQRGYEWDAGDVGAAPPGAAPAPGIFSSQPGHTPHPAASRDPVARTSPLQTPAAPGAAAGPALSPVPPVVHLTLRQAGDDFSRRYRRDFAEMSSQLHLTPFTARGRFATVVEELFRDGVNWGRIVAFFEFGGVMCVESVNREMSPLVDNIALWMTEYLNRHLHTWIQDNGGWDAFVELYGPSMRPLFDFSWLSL
smiles,measurement,setting,value
CSCC[C@H](NC(=O)[C@H](CCCNC(=N)N)NC(=O)[C@H](CCCNC(=N)N)NC(=O)[C@H](CC(C)C)NC(=O)[C@H](CCC(=O)O)NC(=O)[C@H](CCCNC(=N)N)NC(=O)CNC(=O)[C@H](Cc1ccc(O)cc1)NC(=O)[C@H](CCCNC(=N)N)NC(=O)[C@H](CCC(N)=O)NC(=O)[C@H](C)NC(=O)[C@H](C)NC(=O)[C@H](Cc1c[nH]c2ccccc12)NC(=O)[C@H](CC(C)C)NC(=O)[C@@H](N)CC(N)=O)C(=O)N[C@@H](CO)C(=O)N[C@@H](CC(=O)O)C(=O)N[C@@H](CCC(=O)O)C(=O)N[C@@H](Cc1ccccc1)C(=O)N[C@H](C(=O)N[C@@H](CC(=O)O)C(=O)N[C@@H](CO)C(=O)N[C@@H](Cc1ccccc1)C(=O)N[C@@H](CCCCN)C(=O)N[C@@H](CCCCN)C(=O)NCC(=O)O)C(C)C [BadBH3],IC50,Mcl-1,> 100 µM
same,binding of Bcl-w to immobilized peptide,Bcl-w ΔC29,avidly
same,binding of A1 to immobilized peptide,A1 ΔC20,no affinity
same,binding of Bcl-xL to immobilized peptide,Bcl-xL ΔC24,avidly
same,binding of Bcl-2 to immobilized peptide,Bcl-2 ΔC22,avidly
same,binding of Mcl-1 to immobilized peptide,Mcl-1 ΔN151 ΔC23,no affinity
same,binding preference among pro-survival proteins,[1],"strongly preferred Bcl-2, BCl-xL and Bcl-w"
